Source: paper PMC8021118, “Shared recognition of citrullinated tenascin-C peptides by T and B cells in rheumatoid arthritis” (JCI Insight, 2021)
“And” between values parts separate entries of the source, which are not always exact repeats. Identical values can stand only once. Where a SMILES comes first, the peptide text is derived from it. Where no end group is shown, it is not given here. [ ]: non-standard residue; d: D form. Cit = NC(=O)NCCC[C@H](N)C(=O)O

Assays:
[1] = test system: CD4+ memory T cells in peripheral blood; test: Ex vivo detection of peptide-specific memory CD4+ T cells by multiplex HLA class II tetramer staining; type: cell-based, human; details: for Frequencies of peptide-specific memory CD4+ T cells: mean ± SEM, SEM
[2] = test system: CD4+ T cells in PBMC from HLA-DRB1*04:01+ subjects; test: In vitro expansion of peptide-specific CD4+ T cells from PBMC and HLA class II tetramer staining; type: cell-based, human; details: for Responders (% in RA): RA subjects with positive in vitro response (>0.1% of CD4+ T cells tetramer+) of total tested, 10 μg/mL peptide, 14 days, n = 14, TNC44 and TNC59 n = 6; for Immunogenicity: Supplemental Table 1, ability to elicit an immune response in vitro (tetramer staining after expansion)
Description: TNC is a large protein (2110 amino acids in length) composed of an N-terminal assembly domain, 14.5 epidermal growth factor–like repeats (EGF-L), 8 constant fibronectin type III–like repeats (FNIII), and an additional 9 alternatively spliced FNIII elements, and a C-terminal fibrinogen-like globe (FBG) ([16]). Using a previously described algorithm ([9], [24]), we scanned the entire length of the TNC monomer and identified 64 arg-containing peptides with motifs that would predict to permit binding to HLA-DRB1*04:01 in either their noncitrullinated native form, citrullinated form, or both. Based on these predictions, we synthesized the citrullinated versions of these peptides and tested their ability to bind HLA-DRB1*04:01 and to elicit CD4^+ T cell expansion in vitro. Of the peptides synthesized, 8 cit-TNC peptides bound to HLA-DRB1*04:01 with moderate to high affinity (Table 1). Among these, cit-TNC17, cit-TNC22, cit-TNC45, cit-TNC50, and cit-TNC56 were determined to be the most immunogenic, based on their ability to drive epitope-specific T cell expansion, as measured by HLA class II tetramer (Tmr) staining of peripheral blood mononuclear cells (PBMC) from HLA-DRB1*04:01^+ subjects following 2 weeks of in vitro expansion (Table 1 and Supplemental Figure 1; supplemental material available online with this article; https://doi.org/10.1172/jci.insight.145217DS1).
Recombinant HLA-DRB1*04:01 protein was produced by the BRI Tetramer Core as previously described ([56]). Soluble HLA-DRB1*04:01 monomer was purified from insect cell culture supernatants and biotinylated at a sequence-specific site using biotin ligase (Avidity) prior to dialysis into phosphate storage buffer. The biotinylated monomer was loaded with 0.2 mg/mL of peptide by incubating at 37°C for 72 hours in the presence of 2.5 mg/mL n-octyl β-D-glucopyranoside and 1 mM Pefabloc SC (Sigma-Aldrich). Peptide-loaded monomers were conjugated into Tmrs using fluorescently labeled streptavidin (Invitrogen) for 6–18 hours at room temperature at a molar ratio of 8:1.
Cryopreserved PBMCs from RA and healthy subjects were cultured at 5 × 10^6 cells/well in a 48-well plate in RPMI-1640 + 10% HPS with 10 μg/mL of peptide. IL-2 (Novartis) was added at 325 IU/mL on day 6. On day 14, cells were stained for expression of Tmr-PE, CD25 APC (BD Biosciences), and CD4 FITC (BioLegend) (Supplemental Table 8) and then run on a FACSCanto. The data were analyzed by FlowJo software version 10.

HLA-DRB1*04:01 = HLA-DRB1*04:01 (Homo sapiens, UniProt P01903+P01911, A100K/A169T/F76Y/I96L/K127E/L162R/M171V/N62H/P40V/Q125Y/R42H/S133A/S149N/S66Y/V115G/V209L/W38E); test: Peptide competition binding assay to HLA-DRB1*04:01
[3] = test system: serum IgG antibodies of RA subjects; test: ELISA for serum antibodies against peptide; type: binding, human; details: Cys-flanked ELISA peptides
Description: (§1) ELISAs were used to detect antibodies against citrullinated peptides in sera from patients in Autoantibody Cohorts 1 and 2 (Supplemental Table 2). Peptides used in the assay were synthesized by either GenScript or Pepceutical and are described in Supplemental Table 5. The ELISAs were conducted as previously described ([18], [26]). In brief, 96-well Nunc Maxisorp plates were coated with 10 μg/mL peptide in PBS, blocked with 2% BSA, and incubated with sera diluted 1:100. Bound antibodies were detected with an HRP-conjugated anti–human IgG Fc monoclonal antibody (6043HRP, Stratech). A standard curve of positive sera was used to calculate relative antibody titers in arbitrary units (AU) for each sample. The CCP2 ELISA for Autoantibody Cohort 1 was performed as by the manufacturer’s instruction (FCCP600, Axis-Shield). Cross-reactivity to cit-TNC56, cit-TNC17, or cit-TNC5 was analyzed in human sera reactive to cit-TNC56 or cit-TNC17. Sera were diluted 1:100, incubated with 1, 10, and 100 μg/mL of peptides for 2 hours and centrifuged at 10,000g for 10 minutes at room temperature, and the supernatant was added to peptide-coated plates for analysis by ELISA as described above. Positivity was defined by the cut-off of the 98th percentile of HC samples from Autoantibody Cohort 1.

[4] = test system: anti-cit-TNC antibodies in double-reactive RA sera; test: Cross-reactivity (peptide absorption/inhibition) ELISA; type: binding, human; details: for Absorption by the homologous peptide (in words): sera double-reactive for cit-TNC17 and cit-TNC56
Description: Sera that were double-reactive with peptides cit-TNC17 or cit-TNC56 and cit-TNC56, cit-TNC17, or cit-TNC5 were diluted 1:100, incubated with 1, 10, and 100 μg/mL of peptides for 2 hours and centrifuged at 10,000g for 10 minutes, and the supernatant then added to peptide-coated plates for analysis by ELISA. […] (B) Limited cross-reactivity between anti–cit-TNC56 and both anti–cit-TNC17 and anti–cit-TNC5. Each panel was run on a separate plate.
as §1

[5] = test system: Synovial fluid mononuclear cells (SFMC) from HLA-DRB1*04:01 RA patients; test: FluoroSpot cytokine secretion by synovial fluid mononuclear cells stimulated with peptide; type: cell-based, human; details: for IFN-γ secretion by SFMC (in words): 20 μg/mL peptide, 48 hours, 3-color FluoroSpot, RA n = 7, 15-mer T cell peptides; for IL-10 production by SFMC (in words) / IL-17 production by SFMC (in words): peptide stimulation 48 hours, three-color fluorospot, RA n=7
[6] = Autoantibody Cohort 1: HLA-DRB1*04:01, CCP+ RA sera (n = 17), diluted 1:100, cut-off 98th percentile of HC
[7] = Autoantibody Cohort 2, CCP+ RA (n = 55)
[8] = Autoantibody Cohort 2, CCP– RA (n = 43)

Molecule	Percentages of subjects with a detectable ex vivo response ([1]; Healthy control subjects (n=7))	Frequencies of peptide-specific memory CD4+ T cells ([1]; Healthy control subjects (n=7))	Percentages of subjects with a detectable ex vivo response ([1]; RA subjects (n=9))	Frequencies of peptide-specific memory CD4+ T cells ([1]; RA subjects (n=9))	Responders (% in RA) [2]	Immunogenicity [2]	EC50 (HLA-DRB1*04:01)	Percentage of subjects seropositive for antibodies to peptide [3, 6]	IFN-γ secretion by SFMC (in words) [5]	further results
CC(C)C[C@H](NC(=O)[C@H](CCCNC(N)=O)NC(=O)[C@H](Cc1ccc(O)cc1)NC(=O)[C@H](CCCNC(N)=O)NC(=O)[C@H](CC(=O)O)NC(=O)[C@@H](N)Cc1ccccc1)C(=O)N[C@@H](CC(N)=O)C(=O)N[C@@H](Cc1ccc(O)cc1)C(=O)N[C@@H](CO)C(=O)N[C@@H](CC(C)C)C(=O)N1CCC[C@H]1C(=O)N[C@H](C(=O)NCC(=O)N[C@@H](CCC(N)=O)C(=O)N[C@@H](Cc1c[nH]c2ccccc12)C(=O)O)[C@@H](C)O [TNC22] (H-FD[Cit]Y[Cit]LNYSLPTGQW-OH)	71%	3.0±1.2 /million memory CD4+ T cells	56%	3.8±1.9 /million memory CD4+ T cells	46%	Yes	0.7 µM			
CC(C)C[C@H](NC(=O)[C@H](CCCNC(N)=O)NC(=O)[C@H](Cc1ccccc1)NC(=O)CNC(=O)[C@H](CC(=O)O)NC(=O)[C@@H]1CCCN1)C(=O)N[C@@H](CO)C(=O)N[C@@H](Cc1c[nH]c2ccccc12)C(=O)N[C@H](C(=O)N[C@@H](C)C(=O)N[C@@H](CC(=O)O)C(=O)N[C@@H](CCC(=O)O)C(=O)NCC(=O)N[C@H](C(=O)N[C@@H](Cc1ccccc1)C(=O)O)C(C)C)[C@@H](C)O [TNC45] (H-PDGF[Cit]LSWTADEGVF-OH)	71%	2.6±1.0 /million memory CD4+ T cells	100%	22.6±6.4 /million memory CD4+ T cells	50%	Yes	17.1 µM			
CC[C@H](C)[C@H](NC(=O)[C@H](CCCNC(N)=O)NC(=O)[C@H](Cc1ccccc1)NC(=O)[C@H](CO)NC(=O)[C@H](CCC(=O)O)NC(=O)[C@@H](N)C(C)C)C(=O)N[C@H](C(=O)N[C@@H](Cc1ccc(O)cc1)C(=O)N[C@H](C(=O)N1CCC[C@H]1C(=O)N[C@H](C(=O)N[C@H](C(=O)NCC(=O)NCC(=O)N[C@H](C(=O)O)[C@@H](C)O)[C@@H](C)O)[C@@H](C)CC)C(C)C)[C@@H](C)O [TNC50] (H-VESF[Cit]ITYVPITGGT-OH)	71%	1.5±0.6 /million memory CD4+ T cells	100%	9.6±3.1 /million memory CD4+ T cells	50%	Yes	1 µM			
CEHSIQFAEMKL[Cit]PSNF[Cit]NLEG[Cit][Cit]KRC (cysteine pairing not given here) [cit-TNC5, previously published cit-TNC5 peptide, positive control in antibody ELISA, reference compound]								47%		
CEYEVSLIS[Cit][Cit]GDMSSNPAC [cit-TNC17, Cys-flanked citrullinated TNC17 peptide used for detection of antibodies by ELISA]								100%	elicited IFN-γ secretion by SFMC	Cross-reactivity with cit-TNC5 (in words) ([4]; double-reactive sera): no cross-reactivity; Absorption by the homologous peptide (in words) [4]: efficient; maximum inhibition ([4]; serum 6, cit-TNC17 versus cit-TNC56, sera 1:100, 1, 10 and 100 μg/mL peptide, 2 hours): 22%; IL-10 production by SFMC (in words) [5]: produced; Percentage of subjects seropositive for antibodies to peptide [3, 7]: 63.6% and 64%; Percentage of subjects seropositive for antibodies to peptide [3, 8]: 2.3%
CPTAQVESF[Cit]ITYVPITGGC [cit-TNC50, Cys-flanked citrullinated TNC50 peptide used in ELISA]										IL-17 production by SFMC (in words) [5]: produced
CQGQYEL[Cit]VDL[Cit]DHGETAFC [cit-TNC56, Cys-flanked citrullinated TNC56 peptide used in ELISA]								53%	elicited IFN-γ secretion by SFMC	Absorption by the homologous peptide (in words) [4]: efficient; maximum inhibition ([4]; serum 2, cit-TNC56 versus cit-TNC17, sera 1:100, 1, 10 and 100 μg/mL peptide, 2 hours): 24.8%; maximum inhibition ([4]; serum 2, cross-reactivity between cit-TNC56 and cit-TNC5): 38.7%; maximum inhibition ([4]; serum 6, citTNC56 versus cit-TNC17, sera 1:100, 1, 10 and 100 μg/mL peptide, 2 hours): 43%; IL-17 production by SFMC (in words) [5]: produced; Percentage of subjects seropositive for antibodies to peptide [3, 7]: 45.5%; Percentage of subjects seropositive for antibodies to peptide [3, 8]: 11.6%
CTPLAKFD[Cit]Y[Cit]LNYSLPTGC [cit-TNC22, Cys-flanked citrullinated TNC22 peptide used in ELISA]								35%	elicited IFN-γ secretion by SFMC	IL-10 production by SFMC (in words) [5]: produced
CVSDATPDGF[Cit]LSWTADEGC [cit-TNC45, Cys-flanked citrullinated TNC45 peptide used in ELISA]								29%	elicited IFN-γ secretion by SFMC	
